US11590129B2, “Combination therapy with an antitumor alkaloid” (PHARMA MAR, S.A., priority 2010, dated 2023)

Key:
[1] = tested on: A673 human rhabdomyosarcoma cell line; experiment: cells; conditions: Homo sapiens, A673, 72 h
Procedure, shortened: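 A673 cells seeded at 5,000 per well, grown 24 h drug-free, then exposed to compounds for 72 h. Viability by MTT reduction (8 h, 37 °C), formazan dissolved in DMSO. Results expressed as percentage of control cell growth.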

[2] = tested on: RXF-393 human kidney carcinoma cell line; experiment: cells; conditions: Homo sapiens, RXF 393, 72 h
[3] = tested on: MDA-MB-231 human breast adenocarcinoma cell line; experiment: cells; conditions: Homo sapiens, MDA-MB-231, 72 h
[4] = tested on: HT-29 tumors; experiment: Human colorectal tumor xenografts (HT-29) in athymic nude mice, tumor volume % T/C
[5] = tested on: HGC-27 tumors; experiment: Human gastric tumor xenografts (HGC-27) in athymic nude mice, tumor volume % T/C; assay type: in vivo
Experimental: Female athymic nude mice (Harlan Laboratories Models, S.L. (Barcelona, Spain) were utilized for all experiments. Animals were housed in individually ventilated cages, up to ten per cage in a 12-hour light-dark cycle at 21-23° C. and 40-60% humidity. The mice were allowed free access to irradiated standard rodent diet and sterilized water. Animals were acclimated for at least 5 days prior to tumor implantation with a tumor cell suspension.
HGC-27 cells were grown at 37° C. with 5% CO2 in Iscove's modified Dulbeco's medium (IDMD).
PM01183 was provided in the form of vials of lyophilized PM01183 cake which was reconstituted with water for infusion to a concentration of 0.2 mg/mL. The PM01183 stock solution was further diluted in 5% glucose solution for injection to the dosing formulation concentrations. Cisplatin and 5-fluorouracil were provided as solutions prepared by diluting the product with 0.9% saline solution for injection to the target final concentration.
Dose level groups were administered either as single agents or in combination.
Comparison of the median tumor volume in the treatment groups (T) to the median tumor volume in the control group (T/C×100%) was used for evaluation of the antitumor efficacy.

[6] = tested on: IGROV-1 human ovarian adenocarcinoma cell line; experiment: cells; conditions: Homo sapiens, IGROV-1, 72 h
[7] = tested on: HGC-27 human gastric carcinoma cell line; experiment: cells; conditions: Homo sapiens, HGC-27, 72 h
[8] = PM01183 0.045 mg/kg iv days 0,7, 5-fluorouracil study
[9] = PM01183 0.045 mg/kg iv days 0,7, cisplatin study
[10] = PM01183 0.09 mg/kg iv days 0,7, 5-fluorouracil study
[11] = PM01183 0.09 mg/kg iv days 0,7, cisplatin study
[12] = PM01183 0.135 mg/kg iv days 0,7, 5-fluorouracil study
[13] = PM01183 0.135 mg/kg iv days 0,7, cisplatin study
[14] = PM01183 0.18 mg/kg iv days 0,7, 5-fluorouracil study
[15] = PM01183 0.18 mg/kg iv days 0,7, cisplatin study

## COc1ccc2[nH]c3c(c2c1)CCN[C@]31CS[C@@H]2c3c(OC(C)=O)c(C)c4c(c3[C@H](COC1=O)N1[C@@H]2[C@H]2c3c(cc(C)c(OC)c3O)C[C@@H]([C@@H]1O)N2C)OCO4 [PM01183]
[1]
  IC50: 2.2 nM
[2]
  IC50: 5 nM
[3]
  IC50: 3.5 nM
[4]; PM01183 0.045 mg/kg
  % T/C on day 0: 99.8%
  % T/C on day 3: 103.7%
  % T/C on day 5: 100.6%
  % T/C on day 7: 111.1%
  % T/C on day 10: 135.8%
  % T/C on day 12: 125.1%
  % T/C on day 14: 109.3%
[4]; PM01183 0.09 mg/kg
  % T/C on day 0: 98.4%
  % T/C on day 3: 100.9%
  % T/C on day 5: 88.7%
  % T/C on day 7: 121.9%
  % T/C on day 10: 129.8%
  % T/C on day 12: 114.1%
  % T/C on day 14: 109.4%
  % T/C on day 17: 116.1%
  % T/C on day 20: 93.4%
[4]; PM01183 0.135 mg/kg
  % T/C on day 0: 98.4%
  % T/C on day 3: 106.4%
  % T/C on day 5: 95.3%
  % T/C on day 7: 116.6%
  % T/C on day 10: 115.2%
  % T/C on day 12: 119.1%
  % T/C on day 14: 121.5%
  % T/C on day 17: 133.1%
  % T/C on day 20: 105.2%
[4]; PM01183 0.18 mg/kg
  % T/C on day 0: 100.4%
  % T/C on day 3: 108.4%
  % T/C on day 5: 86.5%
  % T/C on day 7: 101.1%
  % T/C on day 10: 116.5%
  % T/C on day 12: 115.4%
  % T/C on day 14: 123.4%
  % T/C on day 17: 86.7%
  % T/C on day 20: 77.5%
[5]; [8]
  % T/C on day 0: 99.9%
  % T/C on day 2: 84.3%
  % T/C on day 5: 103.2%
  % T/C on day 7: 104.6%
  % T/C on day 9: 103.5%
  % T/C on day 12: 101.6%
  % T/C on day 14: 85.0%
[5]; [9]
  % T/C on day 0: 98.9%
  % T/C on day 3: 85.9%
  % T/C on day 5: 83.1%
  % T/C on day 7: 92.1%
  % T/C on day 10: 76.4%
  % T/C on day 12: 81.6%
  % T/C on day 14: 88.5%
[5]; [10]
  % T/C on day 0: 100.6%
  % T/C on day 2: 90.5%
  % T/C on day 5: 87.6%
  % T/C on day 7: 83.4%
  % T/C on day 9: 82.6%
  % T/C on day 12: 76.7%
  % T/C on day 14: 67.7%
[5]; [11]
  % T/C on day 0: 98.6%
  % T/C on day 3: 67.5%
  % T/C on day 5: 67.9%
  % T/C on day 7: 66.1%
  % T/C on day 10: 70.2%
  % T/C on day 12: 60.3%
  % T/C on day 14: 65.0%
[5]; [12]
  % T/C on day 0: 100.2%
  % T/C on day 2: 81.5%
  % T/C on day 5: 58.7%
  % T/C on day 7: 61.4%
  % T/C on day 9: 60.2%
  % T/C on day 12: 54.6%
  % T/C on day 14: 55.1%
[5]; [13]
  % T/C on day 0: 97.9%
  % T/C on day 3: 71.6%
  % T/C on day 5: 59.9%
  % T/C on day 7: 47.8%
  % T/C on day 10: 39.3%
  % T/C on day 12: 37.1%
  % T/C on day 14: 38.3%
[5]; [14]
  % T/C on day 0: 99.6%
  % T/C on day 2: 78.6%
  % T/C on day 5: 50.9%
  % T/C on day 7: 43.3%
  % T/C on day 9: 41.0%
  % T/C on day 12: 33.0%
  % T/C on day 14: 29.2%
[5]; [15]
  % T/C on day 0: 99.6%
  % T/C on day 3: 65.9%
  % T/C on day 5: 55.6%
  % T/C on day 7: 38.7%
  % T/C on day 10: 33.5%
  % T/C on day 12: 24.3%
  % T/C on day 14: 24.3%
[6]
  IC50: 3.2 nM
[7]
  IC50: 0.85 nM
